According to PubChem BioAssay (NCI):
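Briefly, cells in 96-well plates were exposed to five compound concentrations for 48 h, and endpoints were estimated by linear interpolation. Here, GI50 denotes the concentration required for 50% inhibition of growth. TGI denotes the concentration required for complete inhibition of growth.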

Experiments:
Test in all cases: inhibition of tumour cell growth, NCI panel, 48 h
[1] = tested on: OVCAR-5 ovarian
[2] = tested on: MDA-MB-231 breast
[3] = tested on: COLO 205 colon
[4] = tested on: CAKI-1 renal
[5] = tested on: UO-31 renal
[6] = tested on: SW-620 colon
[7] = tested on: RPMI-8226 leukemia
[8] = tested on: NCI-H460 lung
[9] = tested on: SNB-19 CNS
[10] = tested on: UACC-257 melanoma
[11] = tested on: OVCAR-4 ovarian
[12] = tested on: KM12 colon
[13] = tested on: MCF7 breast
[14] = tested on: 786-0 renal
[15] = tested on: LOX IMVI melanoma
[16] = tested on: A498 renal
[17] = tested on: HT29 colon
[18] = tested on: CCRF-CEM leukemia
[19] = tested on: HCT-15 colon
[20] = tested on: IGROV1 ovarian
[21] = tested on: PC-3 prostate
[22] = tested on: NCI-H522 lung
[23] = tested on: HCT-116 colon
[24] = tested on: HCC-2998 colon
[25] = tested on: HOP-62 NSCLC
[26] = tested on: SF-268 CNS
[27] = tested on: HOP-92 NSCLC
[28] = tested on: SK-MEL-5 melanoma
[29] = tested on: NCI-H226 lung
[30] = tested on: HS 578T breast
[31] = tested on: MALME-3M melanoma
[32] = tested on: SF-295 CNS
[33] = tested on: SK-MEL-2 melanoma
[34] = tested on: SR leukemia
[35] = tested on: OVCAR-3 ovarian
[36] = tested on: SF-539 CNS
[37] = tested on: K-562 leukemia
[38] = tested on: NCI/ADR-RES ovarian
[39] = tested on: OVCAR-8 ovarian
[40] = tested on: ACHN renal
[41] = tested on: SNB-75 CNS
[42] = tested on: M14 melanoma
[43] = tested on: HL-60(TB) leukemia
[44] = tested on: SN12C renal
[45] = tested on: BT-549 breast
[46] = tested on: MDA-MB-435
[47] = tested on: UACC-62 melanoma
[48] = tested on: T-47D breast
[49] = tested on: A549 NSCLC
[50] = tested on: TK-10 renal
[51] = tested on: NCI-H23 lung
[52] = tested on: EKVX NSCLC
[53] = tested on: MOLT-4 leukemia
[54] = tested on: RXF 393 renal
[55] = tested on: DU-145 prostate
[56] = tested on: U251 CNS
[57] = tested on: SK-MEL-28 melanoma
[58] = tested on: SK-OV-3 ovarian
[59] = tested on: MDA-N

SMILES: Nc1nccc(-c2c(-c3ccc(F)cc3)ncn2C2CCC(O)CC2)n1 (stereo unspecified)
- GI50 [1]: 8.45 µM
- TGI [1]: > 25 µM
- GI50 [2]: 14.5 µM
- TGI [2]: > 25 µM
- GI50 [3]: 7.1 µM
- TGI [3]: > 25 µM
- GI50 [4]: 7.13 µM
- TGI [4]: > 25 µM
- GI50 [5]: 1.79 µM
- TGI [5]: > 23.2 µM
- GI50 [6]: 13.6 µM
- TGI [6]: > 25 µM
- GI50 [7]: 11.7 µM
- TGI [7]: > 25 µM
- GI50 [8]: 4.95 µM
- TGI [8]: > 25 µM
- GI50 [9]: 15.6 µM
- TGI [9]: > 25 µM
- GI50 [10]: 16.1 µM
- TGI [10]: > 25 µM
- GI50 [11]: 2.92 µM
- TGI [11]: > 25 µM
- GI50 [12]: 7.82 µM
- TGI [12]: > 25 µM
- GI50 [13]: 0.677 µM
- TGI [13]: > 9.14 µM
- GI50 [14]: 10.7 µM
- TGI [14]: > 25 µM
- GI50 [15]: 9.34 µM
- TGI [15]: > 25 µM
- GI50 [16]: 3.29 µM
- TGI [16]: > 25 µM
- GI50 [17]: 6.8 µM
- TGI [17]: > 25 µM
- GI50 [18]: 13.4 µM
- TGI [18]: > 25 µM
- GI50 [19]: 7.15 µM
- TGI [19]: > 25 µM
- GI50 [20]: 4.32 µM
- TGI [20]: 24.8 µM
- GI50 [21]: 13.3 µM
- TGI [21]: > 25 µM
- GI50 [22]: 5.49 µM
- TGI [22]: > 23.1 µM
- GI50 [23]: 9.75 µM
- TGI [23]: > 25 µM
- GI50 [24]: 17.3 µM
- TGI [24]: > 25 µM
- GI50 [25]: 13.2 µM
- TGI [25]: > 25 µM
- GI50 [26]: 10.2 µM
- TGI [26]: > 25 µM
- GI50 [27]: 1.62 µM
- TGI [27]: 17.3 µM
- GI50 [28]: 3.94 µM
- TGI [28]: > 25 µM
- GI50 [29]: 5.45 µM
- TGI [29]: 24.5 µM
- GI50 [30]: 8.21 µM
- TGI [30]: > 25 µM
- GI50 [31]: 6.72 µM
- TGI [31]: > 25 µM
- GI50 [32]: 17.7 µM
- TGI [32]: > 25 µM
- GI50 [33]: 24.7 µM
- TGI [33]: > 25 µM
- GI50 [34]: 12.5 µM
- TGI [34]: > 25 µM
- GI50 [35]: 9.47 µM
- TGI [35]: > 25 µM
- GI50 [36]: > 23.2 µM
- TGI [36]: > 25 µM
- GI50 [37]: 11.9 µM
- TGI [37]: > 25 µM
- GI50 [38]: > 18 µM
- TGI [38]: > 25 µM
- GI50 [39]: 12.3 µM
- TGI [39]: > 25 µM
- GI50 [40]: 2.83 µM
- TGI [40]: > 25 µM
- GI50 [41]: 6.61 µM
- TGI [41]: > 21 µM
- GI50 [42]: 14 µM
- TGI [42]: > 25 µM
- GI50 [43]: 24.4 µM
- TGI [43]: > 25 µM
- GI50 [44]: 6.72 µM
- TGI [44]: > 25 µM
- GI50 [45]: 11.7 µM
- TGI [45]: > 25 µM
- GI50 [46]: 6.75 µM
- TGI [46]: > 25 µM
- GI50 [47]: 10.6 µM
- TGI [47]: > 25 µM
- GI50 [48]: 3.56 µM
- TGI [48]: > 19 µM
- GI50 [49]: 4.03 µM
- TGI [49]: > 25 µM
- GI50 [50]: 3.72 µM
- TGI [50]: 24.4 µM
- GI50 [51]: 9.77 µM
- TGI [51]: > 25 µM
- GI50 [52]: 8.57 µM
- TGI [52]: > 25 µM
- GI50 [53]: 22.5 µM
- TGI [53]: > 25 µM
- GI50 [54]: 4.77 µM
- TGI [54]: > 23.8 µM
- GI50 [55]: 11.2 µM
- TGI [55]: > 25 µM
- GI50 [56]: 9.99 µM
- TGI [56]: > 25 µM
- GI50 [57]: 14.8 µM
- TGI [57]: > 25 µM
- GI50 [58]: 3.97 µM
- TGI [58]: 12.2 µM

SMILES: c1ccc(CCCCNCc2cc(CNCCCCc3ccccc3)cc(CNCCCCc3ccccc3)c2)cc1
- TGI [1]: 3.22 µM
- TGI [3]: 0.644 µM
- TGI [5]: 0.949 µM
- TGI [8]: > 100 µM
- TGI [9]: 0.908 µM
- TGI [14]: 26.4 µM
- TGI [18]: 0.432 µM
- TGI [19]: 0.368 µM
- TGI [23]: 6.42 µM
- TGI [32]: 3.06 µM
- TGI [59]: 10.2 µM
- TGI [35]: 2.77 µM
- TGI [37]: > 100 µM
- TGI [38]: 1.1 µM
- TGI [40]: 2.95 µM
- TGI [42]: 0.33 µM
- TGI [43]: 0.434 µM
- TGI [44]: 23.5 µM
- TGI [45]: 2.83 µM
- TGI [49]: 0.326 µM
- TGI [51]: 2.11 µM
- TGI [55]: 2.07 µM
- TGI [57]: 1.84 µM
- TGI [58]: 3.41 µM

SMILES: Nc1nc2c(nnn2C2CC(O)C(CO)O2)c(=O)[nH]1 (stereo unspecified)
- GI50 [1]: 26.2 µM
- TGI [1]: > 100 µM
- GI50 [2]: 5.41 µM
- TGI [2]: > 100 µM
- GI50 [3]: 1.89 µM
- TGI [3]: 6.3 µM
- GI50 [4]: 2.3 µM
- TGI [4]: > 100 µM
- GI50 [5]: 3.96 µM
- TGI [5]: > 100 µM
- GI50 [6]: 3.74 µM
- TGI [6]: > 100 µM
- GI50 [7]: 2.65 µM
- TGI [7]: > 100 µM
- GI50 [8]: 7.4 µM
- TGI [8]: > 100 µM
- GI50 [9]: 34.1 µM
- TGI [9]: > 100 µM
- GI50 [10]: > 48.9 µM
- TGI [10]: > 100 µM
- GI50 [11]: 11.5 µM
- TGI [11]: > 100 µM
- GI50 [12]: 5.39 µM
- TGI [12]: > 100 µM
- GI50 [13]: 4.21 µM
- TGI [13]: > 100 µM
- GI50 [14]: 2.99 µM
- TGI [14]: > 100 µM
- GI50 [15]: 0.92 µM
- TGI [15]: > 83.2 µM
- GI50 [16]: 8.22 µM
- TGI [16]: > 48.1 µM
- GI50 [17]: 13.5 µM
- TGI [17]: > 100 µM
- GI50 [18]: 2.39 µM
- TGI [18]: > 100 µM
- GI50 [19]: 3.65 µM
- TGI [19]: > 100 µM
- GI50 [20]: 9.49 µM
- TGI [20]: > 100 µM
- GI50 [21]: 2.55 µM
- TGI [21]: > 100 µM
- GI50 [22]: 3.81 µM
- TGI [22]: > 100 µM
- GI50 [23]: 5.89 µM
- TGI [23]: > 100 µM
- GI50 [24]: 3.63 µM
- TGI [24]: > 92 µM
- GI50 [25]: 7.91 µM
- TGI [25]: > 93.9 µM
- GI50 [26]: 7.99 µM
- TGI [26]: > 100 µM
- GI50 [27]: 1.62 µM
- TGI [27]: 51.1 µM
- GI50 [28]: 14.7 µM
- TGI [28]: > 89 µM
- GI50 [29]: 8.75 µM
- TGI [29]: > 100 µM
- GI50 [30]: > 33.9 µM
- TGI [30]: > 95.7 µM
- GI50 [31]: 5.53 µM
- TGI [31]: > 100 µM
- GI50 [32]: 2.54 µM
- TGI [32]: > 56.3 µM
- GI50 [33]: 20.2 µM
- TGI [33]: > 100 µM
- GI50 [34]: 2.54 µM
- TGI [34]: > 76.2 µM
- GI50 [35]: 4.78 µM
- TGI [35]: > 69 µM
- GI50 [36]: 3.12 µM
- TGI [36]: > 41 µM
- GI50 [37]: 4.04 µM
- TGI [37]: > 100 µM
- GI50 [38]: 3.08 µM
- TGI [38]: > 100 µM
- GI50 [39]: 3.71 µM
- TGI [39]: > 100 µM
- GI50 [40]: 1 µM
- TGI [40]: > 22.7 µM
- GI50 [41]: 7.59 µM
- TGI [41]: > 100 µM
- GI50 [42]: 4.47 µM
- TGI [42]: > 92.1 µM
- GI50 [43]: 1.15 µM
- TGI [43]: > 38.1 µM
- GI50 [44]: 5.44 µM
- TGI [44]: > 100 µM
- GI50 [45]: 4.14 µM
- TGI [45]: > 59.9 µM
- GI50 [46]: 4.35 µM
- TGI [46]: > 100 µM
- GI50 [47]: 3.48 µM
- TGI [47]: 36.2 µM
- GI50 [48]: 4.59 µM
- TGI [48]: > 65.1 µM
- GI50 [49]: 20.3 µM
- TGI [49]: > 100 µM
- GI50 [50]: > 100 µM
- TGI [50]: > 100 µM
- GI50 [51]: 4.61 µM
- TGI [51]: > 100 µM
- GI50 [52]: 93.5 µM
- TGI [52]: > 100 µM
- GI50 [53]: 2.61 µM
- TGI [53]: > 53 µM
- GI50 [54]: 3.05 µM
- TGI [54]: 33.8 µM
- GI50 [55]: 1.45 µM
- TGI [55]: > 100 µM
- GI50 [56]: 9.66 µM
- TGI [56]: > 100 µM
- GI50 [57]: 20.4 µM
- TGI [57]: > 100 µM
- GI50 [58]: 0.937 µM
- TGI [58]: > 23.4 µM
